Source: patent publication US9018258B2, “Substituted 1-benzylcycloalkylcarboxylic acids and the use thereof” (Bayer Intellectual Property GmbH, priority 2010, dated 2015)

What was measured:
[1] = target: T1, soluble guanylate cyclase (sGC) (Rattus norvegicus, UniProt P20595); test: Stimulation of sGC enzyme activity (PPi detection, luciferase); assay type: biochemical; details: sGC enzyme in vitro; for EC50: read-out: EC50 (concentration at 50% of maximum efficacy), activating action at the sGC enzyme
T1 construct: made in house; host or cells: Sf9 insect cells (baculovirus)
T1 sequence (P19686 whole entry partner): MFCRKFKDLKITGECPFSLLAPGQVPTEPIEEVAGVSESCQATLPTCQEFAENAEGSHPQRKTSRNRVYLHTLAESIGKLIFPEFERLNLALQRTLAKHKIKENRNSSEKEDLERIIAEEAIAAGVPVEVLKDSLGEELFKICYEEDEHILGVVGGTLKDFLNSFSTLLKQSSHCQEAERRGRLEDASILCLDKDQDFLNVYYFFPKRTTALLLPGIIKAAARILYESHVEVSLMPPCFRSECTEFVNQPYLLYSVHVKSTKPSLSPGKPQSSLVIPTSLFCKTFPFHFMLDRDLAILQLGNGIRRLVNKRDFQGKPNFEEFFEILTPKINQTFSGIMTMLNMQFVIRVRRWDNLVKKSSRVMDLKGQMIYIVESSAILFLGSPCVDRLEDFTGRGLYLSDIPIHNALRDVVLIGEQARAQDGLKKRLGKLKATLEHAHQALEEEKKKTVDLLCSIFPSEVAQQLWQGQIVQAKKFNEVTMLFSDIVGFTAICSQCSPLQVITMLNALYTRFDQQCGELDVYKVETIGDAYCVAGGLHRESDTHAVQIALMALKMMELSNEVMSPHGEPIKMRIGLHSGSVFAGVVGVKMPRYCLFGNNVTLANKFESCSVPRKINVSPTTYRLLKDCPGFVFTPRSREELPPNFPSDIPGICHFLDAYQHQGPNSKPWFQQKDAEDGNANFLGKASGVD
T1 sequence (P20595 whole entry): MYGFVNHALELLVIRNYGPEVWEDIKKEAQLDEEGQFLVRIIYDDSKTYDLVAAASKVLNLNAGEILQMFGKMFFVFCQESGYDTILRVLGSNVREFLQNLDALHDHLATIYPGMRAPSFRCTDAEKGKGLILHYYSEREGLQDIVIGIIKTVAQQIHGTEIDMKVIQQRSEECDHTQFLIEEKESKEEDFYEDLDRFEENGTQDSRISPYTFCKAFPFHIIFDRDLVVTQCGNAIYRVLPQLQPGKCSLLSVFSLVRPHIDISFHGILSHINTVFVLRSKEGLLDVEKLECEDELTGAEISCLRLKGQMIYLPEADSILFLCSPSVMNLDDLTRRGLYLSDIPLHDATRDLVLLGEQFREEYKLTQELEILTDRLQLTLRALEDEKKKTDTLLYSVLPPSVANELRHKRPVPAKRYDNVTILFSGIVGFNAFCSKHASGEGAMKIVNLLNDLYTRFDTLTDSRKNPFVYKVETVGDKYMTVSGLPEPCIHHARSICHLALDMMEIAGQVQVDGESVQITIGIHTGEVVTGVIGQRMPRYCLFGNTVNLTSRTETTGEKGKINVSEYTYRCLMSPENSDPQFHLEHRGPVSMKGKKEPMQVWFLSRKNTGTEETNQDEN
Outline: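 Rat sGC (0-10 nM) preincubated with compound 10 min at room temperature in TEA/MgCl2 buffer pH 7.5; reaction started with GTP, PPi measured continuously by luciferase luminescence. Stimulation expressed relative to unstimulated reaction; haem-free enzyme made by 30 min with 25 μM ODQ.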

[2] = target: T2, sGC (Rattus norvegicus, UniProt P20595); test: Action at a recombinant guanylate cyclase reporter cell line (CHO reporter cell); assay type: cell-based; details: CHO reporter cell in vitro
T2 construct: expressed in transfected cells; host or cells: CHO reporter cell
T2 sequence (P19686 whole entry partner): as the sequence (P19686 whole entry partner) above
T2 sequence (P20595 whole entry): as the sequence (P20595 whole entry) above
Procedure: The cellular action of the compounds according to the invention is determined at a recombinant guanylate cyclase reporter cell line, as described in F. Wunder et al., Anal. Biochem. 339, 104-112 (2005).

[3] = target: T3, GAL4-PPARα (Homo sapiens, UniProt Q07869); test: Cellular PPAR transactivation assay, GAL4-PPARα chimera in CHO-K1 cells; assay type: cell-based; details: for Emax: CHO-K1, maximum effect relative to reference compound (Example 73 of EP 1 452 521-A1 = 100%), read-out: PPARα efficacy; for EC50: CHO-K1 cells, luciferase reporter, 6 h stimulation
T3 construct: expressed in transfected cells
T3 sequence (Q07869 167-468): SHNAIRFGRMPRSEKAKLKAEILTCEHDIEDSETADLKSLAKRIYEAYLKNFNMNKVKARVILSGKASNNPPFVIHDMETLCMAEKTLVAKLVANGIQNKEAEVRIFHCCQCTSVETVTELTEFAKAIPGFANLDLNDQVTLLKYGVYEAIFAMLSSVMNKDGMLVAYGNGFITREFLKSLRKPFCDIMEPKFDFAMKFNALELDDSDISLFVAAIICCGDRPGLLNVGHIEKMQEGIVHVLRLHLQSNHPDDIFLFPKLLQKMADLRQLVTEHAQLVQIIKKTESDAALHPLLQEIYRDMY
Outline: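 CHO-K1 cells stably expressing GAL4 DNA-binding domain fused to the human PPAR ligand-binding domain (α aa 167-468, γ aa 203-506, δ aa 138-442) plus a GAL4-driven firefly luciferase reporter. Compounds added in serum-free medium for 6 h; EC50 from luminescence curves. Efficacy in % of a pan-PPAR agonist reference set as 100%.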

[4] = target: T4, Haem-free sGC (Rattus norvegicus, UniProt P20595); test: Stimulation of recombinant soluble guanylate cyclase (sGC) in vitro, haem-free enzyme; assay type: biochemical
T4 construct: made in house; host or cells: Sf9 insect cells (baculovirus)
T4 sequence (P19686 whole entry partner): as the sequence (P19686 whole entry partner) above
T4 sequence (P20595 whole entry): as the sequence (P20595 whole entry) above
Procedure: Investigations on the stimulation of recombinant soluble guanylate cyclase (sGC) by the compounds according to the invention with and without sodium nitroprusside, and with and without the haem-dependent sGC inhibitor 1H-1,2,4-oxadiazolo[4,3a]quinoxalin-1-one (ODQ), are carried out by the method described in detail in the following reference: M. Hoenicka, E. M. Becker, H. Apeler, T. Sirichoke, H. Schroeder, R. Gerzer and J.-P. Stasch, “Purified soluble guanylyl cyclase expressed in a baculovirus/Sf9 system: Stimulation by YC-1, nitric oxide, and carbon oxide”, J. Mol. Med. 77 (1999), 14-23. The haem-free guanylate cyclase is obtained by adding Tween 20 to the sample buffer (0.5% in the final concentration).
The activation of sGC by a test substance is reported as x-fold stimulation of the basal activity.

MEC (minimum effective concentration), activating action at the sGC enzyme [1] | EC50 [1] | MEC (minimum effective concentration), sGC-activating activity in the CHO reporter cell [2] | Emax [3] | EC50 [3] | Stimulation (x-fold) of recombinant sGC, Basal ([4]; test substance 0.01 μM) | Stimulation (x-fold) of recombinant sGC, Basal ([4]; test substance 0.1 μM) | Stimulation (x-fold) of recombinant sGC, Basal ([4]; test substance 1.0 μM) | Stimulation (x-fold) of recombinant sGC, Basal ([4]; test substance 10 μM) | Stimulation (x-fold) of recombinant sGC, Basal ([4]; test substance 100 μM) | SMILES
4.1 nM | 53 nM | 1 nM | 0% | > 10000 nM | 2.0 ± 0.4 x-fold | 5.2 ± 0.8 x-fold | 14.9 ± 2.2 x-fold | 19.4 ± 2.8 x-fold | – | [2H]C([2H])([2H])OC(c1ccc(Cl)c(NC(=O)[C@H](c2ccc(Cl)cc2)[C@@H](C)C(F)(F)F)c1)C1(C(=O)O)CC1 (single isomer, unassigned; (+)) [Example 99]
0.6 nM | 7.6 nM | 0.3 nM | 0% | > 10000 nM | – | – | – | – | – | C[C@H]([C@H](C(=O)Nc1cc(CC2(C(=O)O)CC2)ccc1Cl)c1ccc(Cl)c(F)c1)C(F)(F)F [Example 30, (+)-1-(4-chloro-3-{[(2S,3R)-2-(4-chloro-3-fluoro-phenyl)-4,4,4-trifluoro-3-methylbutanoyl]amino}-benzyl)cyclopropanecarboxylic acid]
0.7 nM | 7.3 nM | 0.4 nM | 0% | > 10000 nM | 2.6 ± 0.8 x-fold | 7.1 ± 2.4 x-fold | 27.2 ± 7.4 x-fold | 41.2 ± 9.8 x-fold | 39.0 ± 9.1 x-fold | C[C@H]([C@H](C(=O)Nc1cc(CC2(C(=O)O)CC2)ccc1Cl)c1ccc(Cl)cc1)C(F)(F)F [Example 50, (+)-1-(4-Chloro-3-{[(2S,3R)-2-(4-chlorophenyl)-4,4,4-trifluoro-3-methylbutanoyl]amino}benzyl)-cyclopropanecarboxylic acid]
0.7 nM | 4.6 nM | 0.3 nM | 0% | > 10000 nM | – | – | – | – | – | CCOC(c1ccc(Cl)c(NC(=O)[C@H](c2ccc(Cl)cc2)[C@@H](C)C(F)(F)F)c1)C1(C(=O)O)CC1 (single isomer, unassigned) [Example 101]
